Source: patent publication US6673549B1, “Genes expressed in C3A liver cell cultures treated with steroids” (Incyte Corporation, priority 2000, dated 2004)

What was measured:
human C3A liver cells = assay: Microarray differential gene expression in human C3A liver cell cultures treated with steroids; assay type: cell-based
Source text: Incyte clones represent template sequences derived from the LWESEQ GOLD assembled human sequence database (Incyte Genomics). In cases where more than one clone was available for a particular template, the 5′-most clone in the template was used on the microarray. The HUMAN GENOME GEM series 1-4 microarrays (Incyte Genomics) contain 28,626 array elements which represent 10,068 annotated clusters and 18,558 unannotated clusters. For the UNIGEM series microarrays (Incyte Genomics), Incyte clones were mapped to non-redundant Unigene clusters (Unigene database (build 46), NCBI; Shuler (1997) J Mol Med 75:694-698), and the 5′ clone with the strongest BLAST alignment (at least 90% identity and 100 bp overlap) was chosen, verified, and used in the construction of the microarray. The UNIGEM V microarray (Incyte Genomics) contains 7075 array elements which represent 4610 annotated genes and 2,184 unannotated clusters.
To construct microarrays, cDNAs were amplified from bacterial cells using primers complementary to vector sequences flanking the cDNA insert. […] Amplified cDNAs were then purified using […]-400 columns (APB). Purified cDNAs were immobilized on polymer-coated glass slides. Glass microscope slides (Corning, Corning N.Y.) were cleaned by ultrasound in 0.1% SDS and acetone, with extensive distilled water washes between and after treatments. Glass slides were etched in 4% hydrofluoric acid (VWR Scientific Products, West Chester Pa.), washed thoroughly in distilled water, and coated with 0.05% aminopropyl silane (Sigma Aldrich) in 95% ethanol. Coated slides were cured in a 110° C. oven. cDNAs were applied to the coated glass substrate using a procedure described in U.S. Pat. No. 5,807,522. One microliter of the cDNA at an average concentration of 100 ng/μl was loaded into the open capillary printing element by a high-speed robotic apparatus which then deposited about 5 nl of cDNA per slide.
Microarrays were UV-crosslinked using a […] UV-crosslinker (Stratagene), and then washed at room temperature once in 0.2% SDS and three times in distilled water. Non-specific binding sites were blocked by incubation of microarrays in 0.2% casein in phosphate buffered saline (Tropix, Bedford Mich.) for 30 minutes at 60° C. followed by washes in 0.2% SDS and distilled water as before.
In all cases, mRNA from untreated early confluent C3A cells were prepared in parallel as described below.
Cells were harvested and lysed in 1 ml of TRIZOL reagent (5×10^6 cells/ml; Life Technologies). Lysates were vortexed thoroughly, incubated at room temperature for 2-3 minutes, and extracted with 0.5 ml chloroform. The extract was mixed, incubated at room temperature for 5 minutes, and centrifuged at 15,000 rpm for 15 minutes at 4° C. The aqueous layer was collected, and an equal volume of isopropanol was added. Samples were mixed, incubated at room temperature for 10 minutes, and centrifuged at 15,000 rpm for 20 minutes at 4° C. The supernatant was removed, and the RNA pellet was washed with 1 ml of 70% ethanol, centrifuged at 15,000 rpm at 4° C., and resuspended in RNAse-free water. The concentration of the RNA was determined by measuring the optical density at 260 nm.
Poly(A) RNA was prepared using an OLIGOTEX mRNA kit (Qiagen) with the following modifications: OLIGOTEX beads were washed in tubes instead of on spin columns, resuspended in elution buffer, and then loaded onto spin columns to recover mRNA. To obtain maximum yield, the mRNA was eluted twice.
Each poly(A) RNA sample was reverse transcribed using MMLV reverse-transcriptase, 0.05 pg/μl oligo-d(T) primer (21mer), 1× first strand buffer, 0.03 units/ul RNAse inhibitor, 500 uM dATP, 500 uM dGTP, 500 uM dTTP, 40 uM dCTP, and 40 uM either dCTP-Cy3 or dCTP-Cy5 (APB).

[1] = intranasal; cited from earlier work

SMILES: C[C@H]1C[C@H]2[C@@H]3CCC4=CC(=O)C=C[C@]4(C)[C@@]3(Cl)[C@@H](O)C[C@]2(C)[C@@]1(O)C(=O)CO [beclomethasone]
- Ave DE [log2] (C3A treated with steroid) (human C3A liver cells; Clone ID 400654): 1.06 log2
- Ave DE [log2] (C3A treated with steroid) (human C3A liver cells; Clone ID 517374): 0.40 log2
- Ave DE [log2] (C3A treated with steroid) (human C3A liver cells; Clone ID 615776): 1.01 log2
- Ave DE [log2] (C3A treated with steroid) (human C3A liver cells; Clone ID 654246): −0.95 log2
- Ave DE [log2] (C3A treated with steroid) (human C3A liver cells; Clone ID 668460): 1.23 log2
- Ave DE [log2] (C3A treated with steroid) (human C3A liver cells; Clone ID 963331): −1.01 log2
- Ave DE [log2] (C3A treated with steroid) (human C3A liver cells; Clone ID 1275616): 0.94 log2
- Ave DE [log2] (C3A treated with steroid) (human C3A liver cells; Clone ID 1323616): 1.09 log2
- Ave DE [log2] (C3A treated with steroid) (human C3A liver cells; Clone ID 1329625): 0.35 log2
- Ave DE [log2] (C3A treated with steroid) (human C3A liver cells; Clone ID 1573840): 0.97 log2
- Ave DE [log2] (C3A treated with steroid) (human C3A liver cells; Clone ID 1604437): 0.47 log2
- Ave DE [log2] (C3A treated with steroid) (human C3A liver cells; Clone ID 1662870): −0.76 log2
- Ave DE [log2] (C3A treated with steroid) (human C3A liver cells; Clone ID 1697719): −0.69 log2
- Ave DE [log2] (C3A treated with steroid) (human C3A liver cells; Clone ID 1723834): 0.47 log2
- Ave DE [log2] (C3A treated with steroid) (human C3A liver cells; Clone ID 1857044): 0.61 log2
- Ave DE [log2] (C3A treated with steroid) (human C3A liver cells; Clone ID 1876829): −1.00 log2
- Ave DE [log2] (C3A treated with steroid) (human C3A liver cells; Clone ID 1951845): 1.01 log2
- Ave DE [log2] (C3A treated with steroid) (human C3A liver cells; Clone ID 1995520): 0.82 log2
- Ave DE [log2] (C3A treated with steroid) (human C3A liver cells; Clone ID 2046717): 0.98 log2
- Ave DE [log2] (C3A treated with steroid) (human C3A liver cells; Clone ID 2086783): −0.88 log2
- Ave DE [log2] (C3A treated with steroid) (human C3A liver cells; Clone ID 2095329): −0.99 log2
- Ave DE [log2] (C3A treated with steroid) (human C3A liver cells; Clone ID 2285181): −0.88 log2
- Ave DE [log2] (C3A treated with steroid) (human C3A liver cells; Clone ID 2287703): −0.99 log2
- Ave DE [log2] (C3A treated with steroid) (human C3A liver cells; Clone ID 2287724): −1.05 log2
- Ave DE [log2] (C3A treated with steroid) (human C3A liver cells; Clone ID 2294968): −0.73 log2
- Ave DE [log2] (C3A treated with steroid) (human C3A liver cells; Clone ID 2372040): −1.05 log2
- Ave DE [log2] (C3A treated with steroid) (human C3A liver cells; Clone ID 2430165): 1.04 log2
- Ave DE [log2] (C3A treated with steroid) (human C3A liver cells; Clone ID 2506425): 0.88 log2
- Ave DE [log2] (C3A treated with steroid) (human C3A liver cells; Clone ID 2636759): 0.81 log2
- Ave DE [log2] (C3A treated with steroid) (human C3A liver cells; Clone ID 2695371): 0.51 log2
- Ave DE [log2] (C3A treated with steroid) (human C3A liver cells; Clone ID 2947188): −1.02 log2
- Ave DE [log2] (C3A treated with steroid) (human C3A liver cells; Clone ID 3047143): 1.10 log2
- Ave DE [log2] (C3A treated with steroid) (human C3A liver cells; Clone ID 3057272): 0.83 log2
- Ave DE [log2] (C3A treated with steroid) (human C3A liver cells; Clone ID 3528232): 0.38 log2
- Ave DE [log2] (C3A treated with steroid) (human C3A liver cells; Clone ID 3687607): 1.03 log2
- Ave DE [log2] (C3A treated with steroid) (human C3A liver cells; Clone ID 3960194): 1.00 log2
- Ave DE [log2] (C3A treated with steroid) (human C3A liver cells; Clone ID 3973687): 1.23 log2
- Ave DE [log2] (C3A treated with steroid) (human C3A liver cells; Clone ID 3973887): −0.91 log2
- Ave DE [log2] (C3A treated with steroid) (human C3A liver cells; Clone ID 4087621): 0.89 log2
- Ave DE [log2] (C3A treated with steroid) (human C3A liver cells; Clone ID 4215034): 1.13 log2
- Ave DE [log2] (C3A treated with steroid) (human C3A liver cells; Clone ID 4253663): −0.70 log2
- Ave DE [log2] (C3A treated with steroid) (human C3A liver cells; Clone ID 4284270): −0.70 log2
- Ave DE [log2] (C3A treated with steroid) (human C3A liver cells; Clone ID 4855265): 1.00 log2
- Ave DE [log2] (C3A treated with steroid) (human C3A liver cells; Clone ID 4863677): 1.09 log2
- Ave DE [log2] (C3A treated with steroid) (human C3A liver cells; Clone ID 4894508): −0.93 log2
- Ave DE [log2] (C3A treated with steroid) (human C3A liver cells; Clone ID 5091002): −1.13 log2
- anti-inflammatory and vasoconstrictive effects relative to hydrocortisone [1]: 5000 times greater
